PMC9133069, “In vitro proliferation and long-term preservation of functional primary rat hepatocytes in cell fibers” (Scientific Reports, 2022)

Legend:
Assay type in all cases: cell-based
primary rat hepatocytes [1] = test: Hepatotoxicity assessment, urea synthesis after 24 h compound treatment; details: Hepatocyte, 24 h treatment
Protocol: (§1) To explore the possible application of cell fibers encapsulating primary hepatocytes in the field of drug screening, we evaluated the potential of cell fibers for in vitro detection of hepatotoxicity of drugs. […] First, primary rat hepatocytes were encapsulated into core–shell hydrogel microfibers at the initial cell seeding density of 2.5 × 10^7 cells mL^−1 and were cultured in the media supplemented with 3T3CM. Secondly, the concentration-reaction curves for these compounds were obtained through the assays of cellular viability, albumin secretion, and urea synthesis performed at different time points: 4 days, 7 days, 14 days, and 30 days after the start of culture. Thirdly, based upon these concentration-reaction curves (Figs. S4–S7), the corresponding IC50 values were estimated. Moreover, we attempted to compare these IC50 values with those obtained using another culture system where primary rat hepatocytes were cultured on collagen-coated 24-well plates.
(§2) The amount of albumin in culture medium was measured using an enzyme-linked immunosorbent assay kit (rat albumin ELISA kit, Bethyl Laboratories, Montgomery, TX). The amount of urea in culture medium was measured using an assay kit (QuantiChrom urea assay kit, BioAssay Systems, Hayward, CA). For both assays, respective absorbency at 450 nm or at 430 nm was measured using a microplate reader (MTP-810, Corona Electric, and Hitachi, Japan). All the values were normalized by the number of hepatocytes and the data were expressed as protein amount 10^–6 cells time^−1.
(§3) Primary rat hepatocytes cultured either in cell fibers or in collagen-coated 24-well plates were treated for 24 h with either of these compounds diluted in media at intended concentrations, and then the respective compound-treated hepatocytes underwent assays of their different specific characteristics: cell viability, albumin secretion, or urea synthesis. Data from drug-treated hepatocytes were normalized to the respective untreated controls in the same culture system. By plotting these normalized data on y-axis and the concentrations of compounds on x-axis, the concentration-reaction curves were generated.
(§4) Culture of primary rat hepatocytes in cell fibers
(§5) After formation of core-shell hydrogel microfibers encapsulating primary rat hepatocytes, they were incubated at 37 °C for more than 15 minutes to set the ECM proteins at the core region into gels. Subsequently, primary rat hepatocytes in cell fibers were cultured in DMEM supplemented with 1% Glutamax, 10% heat-inactivated FBS, 100 IU mL-1 penicillin, 100 mg mL-1 streptomycin, insulin, 6.25 mg mL-1 transferrin, 6.25 ng mL-1 selenous acid (Lonza, Tokyo, Japan), and 1mM HEPES at 37 °C under a water saturated 5% CO2 environment; this medium is the one that have been optimized to […]
(§6) were performed every 48 hours. […]
(§7) Culture of primary rat hepatocytes using collagen-coated 24-well plates 5x10^5 primary rat hepatocytes freshly isolated were seeded on collagen-coated 24-well plates (Corning Japan K.K, Tokyo, Japan). The primary rat hepatocytes were first cultured in Dulbecco’s Modified Eagle’s Medium (DMEM; Gibco, Tokyo, Japan) supplemented with 1% Glutamax (Life Technologies, Tokyo, Japan), 10% heat-inactivated foetal bovine serum (Equitech-Bio, Kerrville, TX), 100 IU mL-1 penicillin (Gibco), 100 mg mL-1 streptomycin (Gibco), and 1mM HEPES (Sigma Aldrich, Japan) at 37 °C under a water saturated 5% CO2 environment. Three hours after the beginning of culture, media were changed and the primary rat hepatocytes started to be cultured in William’s medium E (Life Technologies) supplemented with 1% Glutamax, 100 IU mL-

primary rat hepatocytes [2] = test: Hepatotoxicity assessment, cell viability (trypan blue exclusion) after 24 h compound treatment; details: Hepatocyte, 24 h treatment
Protocol: as §1, §3, §4, §5, §6
as §7, with “Japan)” for “Japan) at 37 °C under a water saturated 5% CO2 environment. Three hours after the beginning of culture, media were changed and the primary rat hepatocytes started to be cultured in William’s medium E (Life Technologies) supplemented with 1% Glutamax, 100 IU mL-”

primary rat hepatocytes [3] = test: Hepatotoxicity assessment, albumin secretion (ELISA) after 24 h compound treatment; details: Hepatocyte, 24 h treatment
Protocol: as §1, §2, §3, §4, §5, §6
as §7, with “Three hours after the beginning of culture, media were changed and the primary rat hepatocytes started to be cultured in William’s medium E (Life Technologies) supplemented with 1% Glutamax, 100 IU mL-” left out

primary rat hepatocytes [4] = test: Assessment of hepatocyte proliferation inhibition in cell fibers
Source text: Practically, core–shell hydrogel microfibers were fabricated to encapsulate primary rat hepatocytes at the initial cell seeding density of 2.5 × 10^7 cells mL^−1.
For that, we first fabricated cell fibers encapsulating primary rat hepatocytes at the initial cell seeding density of 2.5 × 10^7 cells mL^−1. […] Subsequently, we compared these two groups over time by analyzing their morphology and cell number.
Counting primary rat hepatocytes and evaluating their viability per cell fiber were performed three times and averaged. Prior to those procedures, the alginate shells were removed, and the primary rat hepatocytes were retrieved. To remove the shells of the cell fibers, 4 mg mL^−1 of alginate lyase (Sigma Aldrich) in Dulbecco's Phosphate-Buffered Saline (DPBS) (+) was added at a 1:100 ratio to the culture media, and the media were incubated for 15 min. To retrieve primary rat hepatocytes from ECM, 4 mg mL^−1 of collagenase (Sigma-Aldrich) in DPBS (+) was added at a 1:50 ratio to the culture media and the media were incubated for 5 min. The cell number of primary rat hepatocytes per cell fiber was counted by using cell-counting plate (WakenBtech, Japan). The cellular viabilities were examined by the trypan blue dye-exclusion test.
Then immediately, this working solution was diluted in media at intended concentrations. The changeover between starting and stopping exposure to retrorsine was done by medium replacement; the culture media surrounding the cell fibers can be completely removed from petri dishes to be replaced with new ones while keeping the cell fibers intact. The proliferation rate of the hepatocytes in the experimental groups was calculated by dividing the numbers of the hepatocytes that proliferated from 2 days of culture to 3 days of culture in the experimental groups with the ones in the control group.

[5] = cell fibers (core–shell hydrogel microfibres), culture duration 4 days
[6] = cell fibers (core–shell hydrogel microfibres), culture duration 7 days
[7] = cell fibers (core–shell hydrogel microfibres), culture duration 14 days
[8] = cell fibers (core–shell hydrogel microfibres), culture duration 30 days
[9] = collagen-coated 24-well plates, culture duration 4 days

| Compound | IC50 (primary rat hepatocytes [1]; [5]) | IC50 (primary rat hepatocytes [1]; [6]) | IC50 (primary rat hepatocytes [1]; [7]) | IC50 (primary rat hepatocytes [1]; [8]) | IC50 (primary rat hepatocytes [1]; [9]) | IC50 (primary rat hepatocytes [2]; [5]) | IC50 (primary rat hepatocytes [2]; [6]) | IC50 (primary rat hepatocytes [2]; [7]) | IC50 (primary rat hepatocytes [2]; [8]) | IC50 (primary rat hepatocytes [2]; [9]) | IC50 (primary rat hepatocytes [3]; [5]) | IC50 (primary rat hepatocytes [3]; [6]) | IC50 (primary rat hepatocytes [3]; [7]) | IC50 (primary rat hepatocytes [3]; [8]) | IC50 (primary rat hepatocytes [3]; [9]) | number of the cells in cell fibers during exposure (primary rat hepatocytes [4]; 10 mg mL^−1, 24 h from day 2 to day 3 of culture, media containing 3T3CM) | IC50 value, inhibition of primary rat hepatocyte proliferation (primary rat hepatocytes [4]; cell fibers with 3T3CM, 24 h exposure after 2 days of culture) | IC50 (primary rat hepatocytes [4]; cell fibers with 3T3CM, 24 h exposure after 2 days of culture, converted from mg mL^−1) |
| --- | --- | --- | --- | --- | --- | --- | --- | --- | --- | --- | --- | --- | --- | --- | --- | --- | --- | --- |
| CC(=O)Nc1ccc(O)cc1 [Acetaminophen] | 17 mM | 15.9 mM | 15.9 mM | 17.3 mM | 24 mM | 18.3 mM | 18.6 mM | 18.9 mM | 18.9 mM | 19.3 mM | 16.7 mM | 16.4 mM | 16.3 mM | 15.9 mM | 8.51 ± 0.089 mM |  |  |  |
| O=C(O)Cc1ccccc1Nc1c(Cl)cccc1Cl [Diclofenac] |  |  |  |  | 0.385 ± 0.041 mM |  |  |  |  | 0.472 ± 0.098 mM |  |  |  |  |  |  |  |  |
| retrorsine |  |  |  |  |  |  |  |  |  |  |  |  |  |  |  | did not change | 3100 ± 100 µg/mL | ~8.82 mM |
